Consider three compounds from patent US20170189409A1, “MEDICAL USE” (Almirall, S.A., priority 2014, published 2017).

Series [1] deals with anti-KLH antibody response. In words: Primary T-dependent antibody response (TDAR) to KLH in mice. In kind it is in vivo. On the procedure:
This assay allows a global assessment of the effect of a drug candidate on antigen presentation, helper T lymphocyte function and B lymphocyte dependent antibody production.
In both cases, the administration of the test compound started on the day of sensitization (day +1, KLH 2 mg/mouse, intravenously). […] A possible reason for this discrepancy is that the lymphocyte count of the concurrent vehicle group of the latter study was abnormally lower than usual, which could mask a potential effect of the test compound on this parameter.

Series [2] relates to anti-KLH antibody response. Nature of the series: Secondary TDAR assay to KLH in mice. In kind it is in vivo. As to the method: This assay included two immunizations with KLH separated 15 days apart (50 μg KLH/animal, intraperitoneally) and specific IgG anti-KLH levels were measured on day +11 after the second immunization. Administration of test compound (0.3 and 3 mg/kg) started on the day of second immunization (day +1) and then once daily for the next 9 days.

In series [3] the test system is anti-Dsg3 and anti-dsDNA autoantibody production. In words: MRL/lpr mouse spontaneous autoimmune disease model, autoantibody production. In kind it is in vivo. On the procedure: The primary endpoint of this study was assessment of autoantibody production, including pemphigus-specific anti-Dsg3 antibodies.
The prednisolone dose was selected based on previous reports and corresponds to a high CS dose in humans.
As autoantibodies develop progressively and may follow a different course in each animal, anti-dsDNA antibody levels were measured on week 12 and used to uniformly distribute animals to dosing groups. At week 13, daily treatments were initiated and continued for 6 weeks. Antibodies to dsDNA and Dsg3 were measured at weeks 12, 15, 17 and 19. Skin lesions were inspected visually throughout the study. Effects on other parameters such as proteinuria, as well as general hematological, serological, and histological signs were evaluated at study completion.

Series [4] deals with autoantibody-mediated cutaneous lesions. In words: Immunization-induced mouse model of epidermolysis bullosa acquista (EBA). The note with it: for body weight gain: 6 week treatment, LAS191954 3 mg/kg/day, methylprednisolone 20 mg/kg/day. In kind it is in vivo, B6.SJL-H2s mice. As to the method: Induction of experimental EBA was performed as described in […] et al., J Immunol. 2013; 191:2978-2988. Briefly, 6-10 week B6.SJL-[…] mice were immunized with an emulsion of a recombinant protein encompassing the vWFA2 binding domain of mouse type VII collagen (COL7) in adjuvant (Titermax). After immunization, mice were weekly evaluated for the presence and extend of clinical disease, measured as percentage of body surface affected by skin lesions (erythema, blisters, erosions and crusts). […] Treatments were carried out over a 6-week period, and mice were evaluated for the extend of clinical disease (primary endpoint) weekly. […] For better comparability between experiments, the affected body surface area at weeks 1-6 was related to that at inclusion (set at 1). Body weight was monitored weekly during treatment.

The target of the next series is PI3K p110α (Homo sapiens, UniProt P42336). The note with it: compound pre-incubation time of 30 min.
Sequence of PI3K p110α (P42336 whole entry): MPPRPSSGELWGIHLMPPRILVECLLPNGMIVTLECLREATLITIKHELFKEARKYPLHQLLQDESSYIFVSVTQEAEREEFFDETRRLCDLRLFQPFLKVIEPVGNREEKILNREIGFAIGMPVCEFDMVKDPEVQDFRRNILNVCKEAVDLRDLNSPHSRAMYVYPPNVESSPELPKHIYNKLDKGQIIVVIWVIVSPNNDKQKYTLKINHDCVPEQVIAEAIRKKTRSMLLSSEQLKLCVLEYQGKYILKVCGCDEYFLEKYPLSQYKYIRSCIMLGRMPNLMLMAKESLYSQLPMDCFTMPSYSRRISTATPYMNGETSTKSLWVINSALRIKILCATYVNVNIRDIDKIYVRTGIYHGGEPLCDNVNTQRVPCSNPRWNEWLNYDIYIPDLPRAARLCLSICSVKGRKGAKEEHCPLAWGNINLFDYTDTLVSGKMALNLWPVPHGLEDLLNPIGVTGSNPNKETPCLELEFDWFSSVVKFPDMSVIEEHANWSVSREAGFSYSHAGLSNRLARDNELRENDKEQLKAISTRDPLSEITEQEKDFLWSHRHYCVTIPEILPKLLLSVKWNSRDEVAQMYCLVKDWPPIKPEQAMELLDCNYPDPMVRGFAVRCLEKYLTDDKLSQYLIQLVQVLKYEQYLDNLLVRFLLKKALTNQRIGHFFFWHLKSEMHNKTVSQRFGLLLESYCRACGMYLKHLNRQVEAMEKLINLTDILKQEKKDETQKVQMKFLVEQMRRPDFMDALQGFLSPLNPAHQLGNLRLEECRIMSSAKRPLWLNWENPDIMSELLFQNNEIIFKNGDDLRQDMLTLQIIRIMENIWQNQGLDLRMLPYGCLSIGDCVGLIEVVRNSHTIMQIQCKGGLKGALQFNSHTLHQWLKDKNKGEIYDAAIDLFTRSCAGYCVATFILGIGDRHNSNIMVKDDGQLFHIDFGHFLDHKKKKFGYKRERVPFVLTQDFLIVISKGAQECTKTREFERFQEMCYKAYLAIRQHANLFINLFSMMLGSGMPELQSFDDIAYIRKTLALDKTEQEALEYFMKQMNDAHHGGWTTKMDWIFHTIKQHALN
Sequence of PI3K p110α (P27986 whole entry partner): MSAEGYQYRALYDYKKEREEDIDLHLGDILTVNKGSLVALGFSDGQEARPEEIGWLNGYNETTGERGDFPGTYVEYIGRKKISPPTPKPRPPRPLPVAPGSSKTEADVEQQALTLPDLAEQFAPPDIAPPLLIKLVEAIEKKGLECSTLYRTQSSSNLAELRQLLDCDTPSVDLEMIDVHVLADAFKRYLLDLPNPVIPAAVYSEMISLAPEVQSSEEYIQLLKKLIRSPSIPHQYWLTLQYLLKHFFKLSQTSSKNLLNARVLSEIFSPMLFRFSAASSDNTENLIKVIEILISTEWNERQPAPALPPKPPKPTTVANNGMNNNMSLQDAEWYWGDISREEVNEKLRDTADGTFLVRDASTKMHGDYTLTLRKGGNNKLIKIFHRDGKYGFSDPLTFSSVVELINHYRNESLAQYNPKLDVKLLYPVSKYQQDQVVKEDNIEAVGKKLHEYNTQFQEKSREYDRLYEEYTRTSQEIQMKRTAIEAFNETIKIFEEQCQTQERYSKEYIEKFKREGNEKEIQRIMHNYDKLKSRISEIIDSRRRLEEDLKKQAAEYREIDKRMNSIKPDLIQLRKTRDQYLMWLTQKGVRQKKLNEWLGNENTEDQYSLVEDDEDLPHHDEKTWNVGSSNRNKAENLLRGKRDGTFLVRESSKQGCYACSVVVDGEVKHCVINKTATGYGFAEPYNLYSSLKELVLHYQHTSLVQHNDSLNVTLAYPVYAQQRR
In a further series the target is PI3K p110β (Homo sapiens, UniProt P42338). The conditions noted are these: compound pre-incubation time of 30 min.
Sequence of PI3K p110β (P42338 whole entry): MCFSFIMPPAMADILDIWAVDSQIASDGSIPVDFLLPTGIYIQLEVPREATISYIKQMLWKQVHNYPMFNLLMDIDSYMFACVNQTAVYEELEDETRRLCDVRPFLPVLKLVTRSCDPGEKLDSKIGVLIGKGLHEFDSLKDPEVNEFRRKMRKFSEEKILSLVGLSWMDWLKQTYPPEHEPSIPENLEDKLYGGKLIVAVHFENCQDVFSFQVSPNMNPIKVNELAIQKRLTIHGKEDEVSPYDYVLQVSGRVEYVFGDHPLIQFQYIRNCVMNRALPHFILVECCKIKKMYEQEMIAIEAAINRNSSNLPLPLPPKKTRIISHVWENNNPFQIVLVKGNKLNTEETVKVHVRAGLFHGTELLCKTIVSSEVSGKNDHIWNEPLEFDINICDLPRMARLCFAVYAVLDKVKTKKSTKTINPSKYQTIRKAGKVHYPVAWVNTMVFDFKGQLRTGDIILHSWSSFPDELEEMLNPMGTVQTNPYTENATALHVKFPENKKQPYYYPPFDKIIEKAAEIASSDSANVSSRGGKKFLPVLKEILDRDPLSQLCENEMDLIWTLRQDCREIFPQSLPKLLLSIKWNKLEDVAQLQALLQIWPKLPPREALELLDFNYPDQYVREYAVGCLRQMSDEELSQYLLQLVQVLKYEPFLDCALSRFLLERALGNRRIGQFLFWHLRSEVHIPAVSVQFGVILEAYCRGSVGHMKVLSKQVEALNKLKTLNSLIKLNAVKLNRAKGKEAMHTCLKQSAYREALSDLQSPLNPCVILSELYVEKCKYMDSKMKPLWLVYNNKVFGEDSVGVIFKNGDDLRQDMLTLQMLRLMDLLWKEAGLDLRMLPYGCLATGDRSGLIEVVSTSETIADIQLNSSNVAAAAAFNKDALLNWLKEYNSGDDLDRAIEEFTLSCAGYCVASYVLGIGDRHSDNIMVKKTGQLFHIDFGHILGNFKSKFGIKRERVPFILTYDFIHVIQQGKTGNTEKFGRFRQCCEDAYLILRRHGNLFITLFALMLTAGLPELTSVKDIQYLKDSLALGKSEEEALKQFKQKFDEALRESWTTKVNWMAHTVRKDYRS
Sequence of PI3K p110β (P27986 whole entry partner): as the sequence (P27986 whole entry partner) above
For series [5], the system named is anti-Dsg3 antibody-induced skin damage. In words: Neonatal passive transfer model. The conditions noted are these: for mice with blisters: 8 mice treated.
Setting [6] is: week 19 versus week 12 (FIG. 3).

Each structure is given as a SMILES string.

On to `C[C@H](Nc1ncnc(N)c1C#N)c1nn2ccc(C#N)c2c(=O)n1-c1ccccc1` [LAS191954, (S)-2-(1-(6-amino-5-cyanopyrimidin-4-ylamino)ethyl)-4-oxo-3-phenyl-3,4-dihydropyrrolo[1,2-f][1,2,4]triazine-5-carbonitrile], for which, in series [1] (day +5 PI, 4 days of daily treatment, 0.03-10 mg/kg), the “ID50, primary IgM antibody responses to KLH” value amounted to 0.12 mg/kg. Also, in series [1] (day +15 PI, 14-day dosing, 0.03-1 mg/kg), the “ID50, primary IgG antibody responses to KLH” value turned out to be 0.17 mg/kg. Further, the lymphocyte count result in series [1] (primary IgG study) is recorded as “no apparent effect”. Moreover, the “general health status of the animals” value in series [1] (primary IgM and IgG studies) is listed as “without apparent effects”. The WBC counts entry in series [1] (primary IgM study, mainly reduced peripheral blood lymphocytes) was “lower WBC counts”. Moreover, the “ID50, secondary IgG antibody responses to KLH” value in series [2] (day +11 after second immunization, 0.3 and 3 mg/kg once daily) is listed as less than 0.3 mg/kg. Moreover, the lymphocyte counts result in series [2] (secondary TDAR, 0.3 and 3 mg/kg) is on record as “reduced lymphocyte counts”. The “ID50, anti-Dsg3 and anti-dsDNA autoantibody production” value in series [3] (Mrl/Lpr model, repeated administration) was less than 3 mg/kg. Also, the “reduction of anti-dsDNA antibody titers” value in series [3] (setting [6]) is reported as 10%. Further, the body weight gain result in series [4] is on record as “not altered”. The “overall disease activity, AUC of clinical score” value in series [4] (LAS191954 orally 3 mg/kg/day, 6 weeks, versus vehicle) is recorded as “significant reduction in the accumulative clinical score”. Besides, the concentration for half-maximal inhibition (IC50) on PI3K p110α was 8.22 µM; against PI3K p110β it was 0.0942 µM. Besides, the figures for the “% with blisters” value in series [5] (PV IgG + LAS191954 1 mg/kg) and in series [5] (PV IgG + LAS191954 10 mg/kg) were 75% and 100%, respectively. The figures for the mice with blisters in series [5] (PV IgG + LAS191954 1 mg/kg) and in series [5] (PV IgG + LAS191954 10 mg/kg) were 6 and 8, respectively. Also, in series [5] (mouse, in vivo), the “effect on anti-Dsg3 antibody-induced skin damage” value is “no direct effect”.

On to `C[C@H]1C[C@@H]2[C@H]([C@@H](O)C[C@@]3(C)[C@H]2CC[C@]3(O)C(=O)CO)[C@@]2(C)C=CC(=O)C=C12` [Methylprednisolone, reference compound], for which the body weight gain entry in series [4] is listed as “diminished the body weight gain”.

For `C[C@]12C=CC(=O)C=C1CC[C@@H]1[C@@H]2[C@@H](O)C[C@@]2(C)[C@H]1CC[C@]2(O)C(=O)CO` [Prednisolone, prednisolone, reference compound], the “change of anti-dsDNA antibody levels at the end of treatment” value in series [3] (setting [6]) is on record as “doubled”.

Broadly, the IC50 is the concentration at which inhibition is half-maximal.
